In ChEMBL document CHEMBL4219215, “Discovery of {4-[4,9-bis(ethyloxy)-1-oxo-1,3-dihydro-2H-benzo[f]isoindol-2-yl]-2-fluorophenyl}acetic acid (GSK726701A), a novel EP4 receptor partial agonist for the treatment of pain” (Bioorg Med Chem Lett, 2018):

Key:
[1] = Intrinsic clearance in rat liver microsomes; assay type: ADME, microsome
Cytochrome P450 1A2 = target: T1, Cytochrome P450 1A2 (Homo sapiens, UniProt P05177); test: Inhibition of human recombinant CYP1A2; assay type: ADME; details: human, recombinant enzyme
T1 sequence (P05177 whole entry): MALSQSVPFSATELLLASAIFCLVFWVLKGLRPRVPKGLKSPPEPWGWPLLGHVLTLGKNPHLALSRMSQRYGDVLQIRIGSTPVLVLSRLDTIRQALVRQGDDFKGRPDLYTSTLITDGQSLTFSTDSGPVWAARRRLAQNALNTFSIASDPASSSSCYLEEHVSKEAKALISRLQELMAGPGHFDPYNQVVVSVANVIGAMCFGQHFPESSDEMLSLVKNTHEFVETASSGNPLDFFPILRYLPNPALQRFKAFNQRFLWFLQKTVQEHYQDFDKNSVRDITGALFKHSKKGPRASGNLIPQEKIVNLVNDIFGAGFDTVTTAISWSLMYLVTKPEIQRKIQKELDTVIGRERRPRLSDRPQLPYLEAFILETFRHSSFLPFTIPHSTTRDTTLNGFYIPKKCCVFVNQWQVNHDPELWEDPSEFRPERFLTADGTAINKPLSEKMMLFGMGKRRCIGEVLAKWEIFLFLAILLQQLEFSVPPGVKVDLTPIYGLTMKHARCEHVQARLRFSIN

Homo sapiens [2] = organism: Homo sapiens; test: Selectivity index, ratio of pIC50 for EP3 receptor (unknown origin) to pEC50 for partial agonist activity at human EP4 receptor expressed in HEK293-AEQ17 cells; assay type: cell-based
[3] = target: T2, Prostaglandin E2 receptor EP1 subtype (Homo sapiens, UniProt P34995); test: Activity at EP1 receptor (unknown origin)
T2 sequence (P34995 whole entry): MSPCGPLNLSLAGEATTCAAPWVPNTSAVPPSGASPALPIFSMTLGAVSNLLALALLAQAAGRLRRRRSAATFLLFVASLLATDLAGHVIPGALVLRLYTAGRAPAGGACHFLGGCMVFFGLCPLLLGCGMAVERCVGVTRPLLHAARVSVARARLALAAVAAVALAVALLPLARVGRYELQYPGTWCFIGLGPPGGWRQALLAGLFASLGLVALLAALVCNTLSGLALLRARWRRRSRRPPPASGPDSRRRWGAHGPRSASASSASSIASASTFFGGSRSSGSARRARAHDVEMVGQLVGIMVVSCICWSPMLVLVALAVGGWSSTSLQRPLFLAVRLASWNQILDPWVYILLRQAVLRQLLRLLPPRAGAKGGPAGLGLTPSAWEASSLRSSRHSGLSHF

Homo sapiens [4] = organism: Homo sapiens; test: Selectivity index, ratio of pIC50 for DP1 receptor (unknown origin) to pEC50 for partial agonist activity at human EP4 receptor expressed in HEK293-AEQ17 cells; assay type: cell-based
[5] = target: Prostaglandin F2-alpha receptor (Homo sapiens, UniProt P43088); test: Activity at FP receptor (unknown origin)
Cytochrome P450 2D6 = Cytochrome P450 2D6 (Homo sapiens, UniProt P10635); test: Inhibition of human recombinant CYP2D6; assay type: ADME; details: human, recombinant enzyme
Homo sapiens [6] = organism: Homo sapiens; test: Selectivity index, ratio of agonist activity at EP2 receptor (unknown origin) to pEC50 for partial agonist activity at human EP4 receptor expressed in HEK293-AEQ17 cells; assay type: cell-based
[7] = Intrinsic clearance in human liver microsomes; assay type: ADME, microsome
[8] = Intrinsic clearance in dog liver microsomes; assay type: ADME, Canis lupus familiaris, microsome
Cytochrome P450 2C19 = Cytochrome P450 2C19 (Homo sapiens, UniProt P33261); test: Inhibition of human recombinant CYP2C19; assay type: ADME; details: human, recombinant enzyme
[9] = target: Prostaglandin E2 receptor EP4 subtype (Homo sapiens, UniProt P35408); test: Partial agonist activity at EP4 receptor in human whole blood assessed as inhibition of LPS-induced TNFalpha production; assay type: functional
Cytochrome P450 3A4 [10] = target: T3, Cytochrome P450 3A4 (Homo sapiens, UniProt P08684); test: Inhibition of human recombinant CYP3A4 using DEF substrate; assay type: ADME; details: human, recombinant enzyme
Homo sapiens [11] = organism: Homo sapiens; test: Selectivity index, ratio of pIC50 for FP receptor (unknown origin) to pEC50 for partial agonist activity at human EP4 receptor expressed in HEK293-AEQ17 cells; assay type: cell-based
Rattus norvegicus [12] = test: Analgesic activity in rat model of chronic joint pain assessed as reversal of pain by measuring weight bearing level at 1 mg/kg, po dosed twice daily for 5 days relative to untreated control; assay type: functional; details: 120 h
[13] = Half life in orally dosed cynomolgus monkey; assay type: ADME, organism-based, Macaca fascicularis; details: in vivo, po
[14] = target: Prostacyclin receptor (Homo sapiens) (UniProt P43119); test: Antagonist activity at IP receptor (unknown origin) assessed as inhibition of receptor activation at 1 uM; assay type: functional
Rattus norvegicus [15] = test: Potency index, ratio of ED50 for CCI17474 to ED50 for test compound for analgesic activity in orally dosed rat model of Freund's complete adjuvant-induced acute inflammatory pain assessed as reversal of FCA-induced hypersensitivity; assay type: functional
Cynomolgus monkey = test: Blood clearance in orally dosed cynomolgus monkey; assay type: ADME, organism-based, Macaca fascicularis; details: in vivo, po
[16] = Half life in rat at 1 mg/kg, po; assay type: ADME, organism-based; details: in vivo
[17] = Oral bioavailability in dog; assay type: ADME, organism-based, Canis lupus familiaris; details: in vivo
Cytochrome P450 3A4 [18] = target: T3, Cytochrome P450 3A4; test: Inhibition of human recombinant CYP3A4 using 7BQ substrate; assay type: ADME; details: human, recombinant enzyme
Canis familiaris = test: Blood clearance in orally dosed dog; assay type: ADME, organism-based, Canis lupus familiaris; details: in vivo, po
[19] = Total drug level in blood of orally dosed rat model of Freund's complete adjuvant-induced acute inflammatory pain assessed as reduction in reversal of hypersensitivity; assay type: ADME, organism-based; details: in vivo, po, read-out: Drug uptake
Homo sapiens [20] = organism: Homo sapiens; test: Selectivity index, ratio of pIC50 for EP1 receptor (unknown origin) to pEC50 for partial agonist activity at human EP4 receptor expressed in HEK293-AEQ17 cells; assay type: cell-based
[21] = Oral bioavailability in rat at 1 mg/kg; assay type: ADME, organism-based; details: in vivo
[22] = target: Prostacyclin receptor (Homo sapiens) (UniProt P43119); test: Agonist activity at IP receptor (unknown origin) assessed as induction of receptor activation at 1 uM; assay type: functional
[23] = Protein binding in rat plasma; assay type: ADME, cell-free; details: read-out: PPB (converted)
Thromboxane A2 receptor = target: T4, Thromboxane A2 receptor (Homo sapiens, UniProt P21731); test: Activity at TP receptor (unknown origin)
T4 sequence (P21731 whole entry): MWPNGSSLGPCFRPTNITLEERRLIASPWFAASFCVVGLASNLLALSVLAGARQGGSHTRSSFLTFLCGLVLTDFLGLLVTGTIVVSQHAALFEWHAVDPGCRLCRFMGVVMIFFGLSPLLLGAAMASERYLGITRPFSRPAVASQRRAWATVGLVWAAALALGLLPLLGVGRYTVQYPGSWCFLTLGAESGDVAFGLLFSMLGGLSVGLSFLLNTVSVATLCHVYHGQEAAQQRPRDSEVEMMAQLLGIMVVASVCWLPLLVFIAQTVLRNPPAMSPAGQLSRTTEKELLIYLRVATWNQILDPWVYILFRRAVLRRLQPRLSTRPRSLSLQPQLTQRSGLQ

[24] = Protein binding in dog plasma; assay type: ADME, cell-free, Canis lupus familiaris; details: read-out: PPB (converted)

Chain of Prostacyclin receptor (Homo sapiens) (P43119 whole entry): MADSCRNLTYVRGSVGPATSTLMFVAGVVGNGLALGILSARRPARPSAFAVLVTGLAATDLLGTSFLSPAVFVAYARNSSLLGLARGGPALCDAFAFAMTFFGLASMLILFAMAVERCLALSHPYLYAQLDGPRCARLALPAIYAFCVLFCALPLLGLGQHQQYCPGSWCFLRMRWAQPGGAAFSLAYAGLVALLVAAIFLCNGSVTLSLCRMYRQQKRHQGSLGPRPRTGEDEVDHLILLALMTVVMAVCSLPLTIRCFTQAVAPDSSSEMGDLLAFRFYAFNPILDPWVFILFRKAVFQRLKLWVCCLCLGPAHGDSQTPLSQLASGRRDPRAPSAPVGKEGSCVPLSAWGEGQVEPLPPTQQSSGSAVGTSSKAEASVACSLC
T3 sequence (P08684 whole entry): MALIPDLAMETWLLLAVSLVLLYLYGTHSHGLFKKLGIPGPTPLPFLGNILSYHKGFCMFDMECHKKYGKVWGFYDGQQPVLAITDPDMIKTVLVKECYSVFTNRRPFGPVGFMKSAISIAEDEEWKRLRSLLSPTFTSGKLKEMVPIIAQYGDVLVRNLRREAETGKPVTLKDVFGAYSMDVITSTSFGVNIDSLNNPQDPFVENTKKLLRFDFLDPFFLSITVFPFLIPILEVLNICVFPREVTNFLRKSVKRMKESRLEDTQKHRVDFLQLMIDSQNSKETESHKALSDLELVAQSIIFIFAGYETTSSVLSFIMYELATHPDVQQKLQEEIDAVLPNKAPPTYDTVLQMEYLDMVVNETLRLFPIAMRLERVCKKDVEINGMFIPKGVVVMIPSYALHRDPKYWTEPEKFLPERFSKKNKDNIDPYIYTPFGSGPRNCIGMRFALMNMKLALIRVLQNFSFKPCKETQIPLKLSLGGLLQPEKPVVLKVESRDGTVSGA
Chain of Cytochrome P450 2D6 (P10635 whole entry): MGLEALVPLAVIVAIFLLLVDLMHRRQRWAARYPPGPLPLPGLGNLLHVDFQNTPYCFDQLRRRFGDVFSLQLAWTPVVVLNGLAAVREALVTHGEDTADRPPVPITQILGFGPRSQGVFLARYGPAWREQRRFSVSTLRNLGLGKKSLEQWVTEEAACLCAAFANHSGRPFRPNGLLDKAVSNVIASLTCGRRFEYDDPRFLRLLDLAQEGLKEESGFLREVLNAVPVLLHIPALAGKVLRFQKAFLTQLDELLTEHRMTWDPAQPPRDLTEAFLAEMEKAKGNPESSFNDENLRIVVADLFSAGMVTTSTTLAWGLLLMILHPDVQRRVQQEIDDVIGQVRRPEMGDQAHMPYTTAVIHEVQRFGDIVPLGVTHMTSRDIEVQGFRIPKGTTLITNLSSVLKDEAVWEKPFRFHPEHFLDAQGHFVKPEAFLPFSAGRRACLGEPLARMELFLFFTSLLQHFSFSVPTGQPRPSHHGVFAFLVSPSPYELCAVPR
Chain of Cytochrome P450 2C19 (P33261 whole entry): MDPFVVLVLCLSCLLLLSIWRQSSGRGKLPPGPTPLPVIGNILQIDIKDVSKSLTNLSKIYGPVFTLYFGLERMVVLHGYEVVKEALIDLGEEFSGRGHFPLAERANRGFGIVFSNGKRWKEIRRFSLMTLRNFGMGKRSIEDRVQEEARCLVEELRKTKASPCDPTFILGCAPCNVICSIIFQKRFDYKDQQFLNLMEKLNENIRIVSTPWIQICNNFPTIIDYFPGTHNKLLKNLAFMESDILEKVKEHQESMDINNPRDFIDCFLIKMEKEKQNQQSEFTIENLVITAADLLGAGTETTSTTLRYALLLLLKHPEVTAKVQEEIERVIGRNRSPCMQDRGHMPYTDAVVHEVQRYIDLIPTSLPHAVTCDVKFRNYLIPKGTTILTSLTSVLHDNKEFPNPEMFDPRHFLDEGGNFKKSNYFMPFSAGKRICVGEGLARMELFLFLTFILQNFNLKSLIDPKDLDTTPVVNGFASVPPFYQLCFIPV
Chain of Prostaglandin F2-alpha receptor (P43088 whole entry): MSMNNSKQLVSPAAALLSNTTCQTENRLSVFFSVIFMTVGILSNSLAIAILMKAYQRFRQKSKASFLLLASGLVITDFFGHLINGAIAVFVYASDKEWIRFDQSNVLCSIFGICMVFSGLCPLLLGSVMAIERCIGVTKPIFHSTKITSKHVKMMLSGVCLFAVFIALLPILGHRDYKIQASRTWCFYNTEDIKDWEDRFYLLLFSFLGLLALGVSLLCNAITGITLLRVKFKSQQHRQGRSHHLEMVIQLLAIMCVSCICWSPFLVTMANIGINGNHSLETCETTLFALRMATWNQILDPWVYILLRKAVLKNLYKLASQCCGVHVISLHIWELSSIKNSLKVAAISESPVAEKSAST
Chain of Prostaglandin E2 receptor EP4 subtype (P35408 whole entry): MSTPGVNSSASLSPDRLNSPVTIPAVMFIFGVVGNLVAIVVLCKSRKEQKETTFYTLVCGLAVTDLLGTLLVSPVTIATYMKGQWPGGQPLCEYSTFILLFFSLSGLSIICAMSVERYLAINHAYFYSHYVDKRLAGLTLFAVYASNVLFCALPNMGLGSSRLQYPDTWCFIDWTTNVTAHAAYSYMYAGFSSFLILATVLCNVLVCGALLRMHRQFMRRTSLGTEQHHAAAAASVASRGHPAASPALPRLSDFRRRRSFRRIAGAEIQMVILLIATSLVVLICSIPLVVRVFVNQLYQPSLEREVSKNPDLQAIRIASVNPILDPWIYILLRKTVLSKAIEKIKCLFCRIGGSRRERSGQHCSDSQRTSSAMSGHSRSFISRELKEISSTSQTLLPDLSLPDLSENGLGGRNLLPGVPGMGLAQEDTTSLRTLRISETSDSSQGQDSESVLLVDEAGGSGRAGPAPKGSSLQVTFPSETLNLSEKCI

Compound CCOc1c2c(c(OCC)c3ccccc13)C(=O)N(c1ccc(CC(=O)O)c(F)c1)C2 has a CLH [1] of under 1 mL/min/g, an INH (Cytochrome P450 1A2) of over 100 µM and a Selectivity ratio (Homo sapiens [2]) of over 100. It also gave an IC50 [3] of over 10 µM, a Selectivity ratio (Homo sapiens [4]) of over 100 and an IC50 [5] of over 10 µM. For the same compound, the INH (Cytochrome P450 2D6) was over 100 µM, the Selectivity ratio (Homo sapiens [6]) was over 100 and the CLH [7] was under 1 mL/min/g. For the same compound, the CLH [8] was under 1 mL/min/g, the INH (Cytochrome P450 2C19) was over 100 µM and the EC50 [9] was 6.31 nM. It also gave an INH (Cytochrome P450 3A4 [10]) of over 100 µM, a Selectivity ratio (Homo sapiens [11]) of over 100 and an inhibition in vivo at 1 mg/kg (Rattus norvegicus [12]) of 100%. For the same compound, the half-life [13] was 300 to 600 min, the inhibition [14] was 31% and the “Ratio ED50” value (Rattus norvegicus [15]) was over 10. The clearance (Cynomolgus monkey) was 4 mL/min/kg, the half-life [16] was 360 min and the bioavailability [17] was 69%. For the same compound, the INH (Cytochrome P450 3A4 [18]) was over 100 µM, the clearance (Canis familiaris) was 4 mL/min/kg and the concentration [19] was 600 nM. It also gave a Selectivity ratio (Homo sapiens [20]) of over 100, a bioavailability [21] of 112% and an Activity [22] of 11%. It also gave a fraction unbound [23] of 0.002, an IC50 (Thromboxane A2 receptor) of over 10 µM and a fraction unbound [24] of 0.009.
